Measured values: US10407429B2, “Pyrazolo[1,5-a]triazin-4-amine derivatives useful in therapy” (Curovir AB, priority 2015, dated 2019)

What was measured:
Assay type in all cases: cell-based
[1] = system: polio virus Sabin 1; assay: organism not typed; conditions: read-out: inhibition capacity (IC50) Polio 1
[2] = system: coxsackie B2 virus; assay: Antiviral CPE assay in mammalian cell culture; conditions: read-out: inhibition capacity (IC50) B2
[3] = system: coxsackie B1 virus; assay: Antiviral CPE assay in mammalian cell culture; conditions: read-out: inhibition capacity (IC50) Bl
[4] = system: Enterovirus 71; assay: Antiviral CPE assay in mammalian cell culture; conditions: Enterovirus A, EV71, prevention of viral CPE, read-out: inhibition capacity (IC50) EV71
[5] = system: coxsackie B5virus; assay: Antiviral CPE assay in mammalian cell culture; conditions: read-out: inhibition capacity (IC50) B5
[6] = system: Enterovirus 6; assay: Antiviral CPE assay in mammalian cell culture; conditions: prevention of viral CPE, read-out: inhibition capacity (IC50) EV6
[7] = system: coxsackie B3 virus; assay: Antiviral CPE assay in mammalian cell culture; conditions: Enterovirus B, B3, read-out: inhibition capacity (IC50) B3
[8] = system: Enterovirus 30; assay: Antiviral CPE assay in mammalian cell culture; conditions: Enterovirus, read-out: inhibition capacity (IC50) EV30
[9] = system: coxsackie B 4 virus; assay: Antiviral CPE assay in mammalian cell culture; conditions: Enterovirus B, B4, read-out: inhibition capacity (IC50) B4
[10] = system: Enterovirus 68; assay: Antiviral CPE assay in mammalian cell culture; conditions: Enterovirus D, EV68, read-out: inhibition capacity (IC50) EV68

SMILES	IC50 [1]	IC50 [2]	IC50 [3]	IC50 [4]	IC50 [5]	IC50 [6]	IC50 [7]	IC50 [8]	IC50 [9]	IC50 [10]
COc1ccc(-c2c(C)nn3c(NCc4ccc(F)cc4)nc(C)nc23)cc1OC [Example 1, 8-(3,4-dimethoxyphenyl)-N-[(4-fluorophenyl)methyl]-2,7-dimethyl-pyrazolo[1,5-a][1,3,5]triazin-4-amine]	< 10 nM	< 10 nM	< 100 nM	< 10 nM	< 100 nM	< 1000 nM	< 1000 nM	< 100 nM		
COc1ccc(-c2c(C)nn3c(NCc4ccc(C(F)(F)F)cc4)nc(C)nc23)cc1OC [Example 2, 8-(3,4-dimethoxyphenyl)-2,7-dimethyl-N-[[4-(trifluoromethyl)phenyl]methyl]pyrazolo[1,5-a][1,3,5]triazin-4-amine]	< 100 nM	< 100 nM	< 100 nM	< 1000 nM	< 100 nM	< 1000 nM	< 1000 nM	< 100 nM	< 100 nM	< 1000 nM
COc1ccc(-c2c(C)nn3c(NCc4ccc(C)cc4)nc(C)nc23)cc1OC [Example 3, 8-(3,4-dimethoxyphenyl)-2,7-dimethyl-N-(p-tolylmethyl)pyrazolo[1,5-a][1,3,5]triazin-4-amine]	< 100 nM	< 100 nM	< 100 nM	< 100 nM	< 100 nM	< 1000 nM	< 100 nM	< 100 nM	< 100 nM	< 100 nM
COc1ccc(-c2c(C)nn3c(NCc4ccc(C(C)C)cc4)nc(C)nc23)cc1OC [Example 4, 8-(3,4-dimethoxyphenyl)-N-[(4-isopropylphenyl)methyl]-2,7-dimethyl-pyrazolo[1,5-a][1,3,5]triazin-4-amine]	< 1000 nM	< 1000 nM	< 1000 nM	< 1000 nM	< 1000 nM	< 1000 nM	< 1000 nM	< 1000 nM	< 1000 nM	< 1000 nM
COc1ccc(-c2c(C)nn3c(NCc4ccccn4)nc(C)nc23)cc1OC [Example 5, 8-(3,4-dimethoxyphenyl)-2,7-dimethyl-N-(2-pyridylmethyl)pyrazolo[1,5-a][1,3,5]triazin-4-amine]	< 100 nM	< 100 nM	< 100 nM	< 1000 nM	< 1000 nM	< 1000 nM	< 1000 nM	< 1000 nM	< 1000 nM	< 1000 nM
COc1ccc(-c2c(C)nn3c(NCCc4ccc(Cl)cc4)nc(C)nc23)cc1OC [Example 7, N-[2-(4-chlorophenyl)ethyl]-8-(3,4-dimethoxyphenyl)-2,7-dimethyl-pyrazolo[1,5-a][1,3,5]triazin-4-amine]	< 1000 nM	< 1000 nM	< 1000 nM	< 1000 nM	< 1000 nM	< 1000 nM	< 1000 nM	< 1000 nM	< 1000 nM	< 1000 nM
COc1ccc(-c2c(C)nn3c(NCc4ccc(Cl)cc4)nc(C)nc23)cc1OC [Example 8, N-[(4-chlorophenyl)methyl]-8-(3,4-dimethoxyphenyl)-2,7-dimethyl-pyrazolo[1,5-a][1,3,5]triazin-4-amine]	< 100 nM	< 100 nM	< 100 nM	< 1000 nM	< 1000 nM	< 1000 nM	< 100 nM	< 100 nM	< 100 nM	< 100 nM
COc1ccc(-c2c(C)nn3c(NCc4ccc(NC(C)=O)cc4)nc(C)nc23)cc1OC [Example 9, N-[4-[[[8-(3,4-dimethoxyphenyl)-2,7-dimethyl-pyrazolo[1,5-a][1,3,5]triazin-4-yl]amino]methyl]phenyl]acetamide]	< 10 nM	< 100 nM	< 1000 nM	< 100 nM	< 100 nM	< 100 nM	< 100 nM	< 100 nM	< 100 nM	< 100 nM
COc1ccc(CNc2nc(C)nc3c(-c4ccc(OC)c(OC)c4)c(C)nn23)cc1 [Example 10, 8-(3,4-dimethoxyphenyl)-N-[(4-methoxyphenyl)methyl]-2,7-dimethyl-pyrazolo[1,5-a][1,3,5]triazin-4-amine]	< 100 nM	< 100 nM	< 100 nM	< 1000 nM	< 100 nM	< 1000 nM	< 1000 nM	< 100 nM	< 100 nM	< 100 nM
COc1ccc(-c2c(C)nn3c(NCc4cccc(S(C)(=O)=O)c4)nc(C)nc23)cc1OC [Example 11, 8-(3,4-dimethoxyphenyl)-2,7-dimethyl-N-[(3-methylsulfonylphenyl)methyl]pyrazolo[1,5-a][1,3,5]triazin-4-amine]	< 10 nM	< 10 nM	< 10 nM	< 100 nM	< 10 nM	< 100 nM	< 10 nM	< 10 nM	< 10 nM	< 100 nM
COc1ccc(-c2c(C)nn3c(NCc4cc[n+]([O-])cc4)nc(C)nc23)cc1OC [Example 12, 8-(3,4-dimethoxyphenyl)-2,7-dimethyl-N-[(1-oxidopyridin-1-ium-4-yl)methyl]pyrazolo[1,5-a][1,3,5]triazin-4-amine]	< 1000 nM	< 1000 nM	< 1000 nM	< 1000 nM	< 1000 nM		< 1000 nM	< 1000 nM	< 1000 nM	< 1000 nM
COc1ccc(CNc2nc(C)nc3c(-c4ccc(OC)c(OC)c4)c(C)nn23)cn1 [Example 13, 8-(3,4-dimethoxyphenyl)-N-[(6-methoxy-3-pyridyl)methyl]-2,7-dimethyl-pyrazolo[1,5-a][1,3,5]triazin-4-amine]	< 10 nM	< 100 nM	< 10 nM	< 100 nM	< 100 nM		< 100 nM	< 10 nM	< 100 nM	< 100 nM
COc1ccc(-c2c(C)nn3c(NCC4CCCCC4)nc(C)nc23)cc1OC [Example 15, N-(cyclohexylmethyl)-8-(3,4-dimethoxyphenyl)-2,7-dimethyl-pyrazolo[1,5-a][1,3,5]triazin-4-amine]	< 1000 nM	< 1000 nM	< 1000 nM	< 1000 nM	< 1000 nM	< 1000 nM	< 1000 nM	< 1000 nM	< 1000 nM	< 1000 nM
COc1ccc(-c2c(C)nn3c(NCc4ccc5c(c4)OCO5)nc(C)nc23)cc1OC [Example 16, N-(1,3-benzodioxol-5-ylmethyl)-8-(3,4-dimethoxyphenyl)-2,7-dimethyl-pyrazolo[1,5-a][1,3,5]triazin-4-amine]	< 100 nM	< 100 nM	< 100 nM	< 100 nM	< 100 nM	< 1000 nM	< 100 nM	< 100 nM	< 10 nM	< 100 nM
COc1ccc(-c2c(C)nn3c(NCc4ccc(O)cc4)nc(C)nc23)cc1OC [Example 17, 4-[[[8-(3,4-dimethoxyphenyl)-2,7-dimethyl-pyrazolo[1,5-a][1,3,5]triazin-4-yl]amino]methyl]phenol]	< 10 nM	< 10 nM	< 10 nM	< 10 nM	< 10 nM	< 100 nM	< 100 nM	< 100 nM	< 100 nM	< 100 nM
COc1ccc(-c2c(C)nn3c(NCC4CCCO4)nc(C)nc23)cc1OC (stereo not drawn) [Example 18, 8-(3,4-dimethoxyphenyl)-2,7-dimethyl-N-(tetrahydrofuran-2-ylmethyl)pyrazolo[1,5-a][1,3,5]triazin-4-amine]	< 1000 nM	< 1000 nM	< 1000 nM	< 1000 nM	< 1000 nM	< 1000 nM	< 1000 nM	< 1000 nM	< 1000 nM	< 1000 nM
COc1ccc(-c2c(C)nn3c(NCc4ccc(NS(C)(=O)=O)cc4)nc(C)nc23)cc1OC [Example 19, N-[4-[[[8-(3,4-dimethoxyphenyl)-2,7-dimethyl-pyrazolo[1,5-a][1,3,5]triazin-4-yl]amino]methyl]phenyl]methanesulfonamide]	< 100 nM	< 100 nM	< 100 nM	< 10 nM	< 1000 nM	< 1000 nM	< 100 nM	< 100 nM	< 10 nM	< 100 nM
COc1ccc(-c2c(C)nn3c(NCc4ccccc4)nc(C)nc23)cc1OC [Example 20, N-benzyl-8-(3,4-dimethoxyphenyl)-2,7-dimethyl-pyrazolo[1,5-a][1,3,5]triazin-4-amine]	< 100 nM	< 100 nM	< 100 nM	< 100 nM	< 100 nM	< 100 nM	< 100 nM	< 100 nM	< 10 nM	< 100 nM
COc1ccc(-c2c(C)nn3c(NCc4cccs4)nc(C)nc23)cc1OC [Example 21, 8-(3,4-dimethoxyphenyl)-2,7-dimethyl-N-(2-thienylmethyl)pyrazolo[1,5-a][1,3,5]triazin-4-amine]	< 100 nM	< 10 nM	< 10 nM	< 100 nM	< 100 nM	< 100 nM	< 100 nM	< 100 nM	< 100 nM	< 100 nM
